Experiments:
Assay type in all cases: in vivo
[1] = system: cleavers (Galium aparine L.), Ga; test: Test Example 3: herbicidal effect on upland weeds before emergence; details: dosage 5 kg/ha
Procedure, shortened: (§1)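 Steps: sow upland weed seeds; spray liquid formulation of active ingredient at prescribed concentration prior to emergence; after 14 days, calculate weed-killing rate; judge herbicidal effect.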

[2] = system: bird's eye speedwell (Veronica persica Poir.), Vp; test: as above; details: dosage 5 kg/ha
Procedure, shortened: as §1

[3] = system: velvetleaf (Abutilon theophtasti L.), At; test: as above; details: dosage 5 kg/ha
Procedure, shortened: as §1

[4] = system: cocklebur (Xanthium strumarium L.), Xs; test: as above; details: dosage 5 kg/ha
Procedure, shortened: as §1

[5] = system: barnyard grass (Echinochloa crus-galli Beauv.), Ec; test: as above; details: dosage 5 kg/ha
Procedure, shortened: as §1

[6] = system: forxtail grass (Alopecurus aequalis var. amurensis Ohwi), Am; test: as above; details: foxtail grass, dosage 5 kg/ha
Procedure, shortened: as §1

[7] = system: cleavers (Galium aparine L.), Ga; test: Test Example 4: herbicidal effect on upland weeds after emergence; details: dosage 5 kg/ha; sprayed after emergence; judged 14 days after treatment
Procedure, shortened: (§2)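 Post-emergence foliar spray at a prescribed concentration, applied once the sown weeds and soybean reached defined leaf stages in soil vats; herbicidal effect and soybean injury scored after 14 days.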

[8] = system: bird's eye speedwell (Veronica persica Poir.), Vp; test: as above; details: dosage 5 kg/ha; sprayed after emergence; judged 14 days after treatment
Procedure, shortened: as §2

[9] = system: velvetleaf (Abutilon theophtasti L.), At; test: as above; details: dosage 5 kg/ha; sprayed after emergence; judged 14 days after treatment
Procedure, shortened: as §2

[10] = system: cocklebur (Xanthium strumarium L.), Xs; test: as above; details: dosage 5 kg/ha; sprayed after emergence; judged 14 days after treatment
Procedure, shortened: as §2

[11] = system: barnyard grass (Echinochloa crus-galli Beauv.), Ec; test: as above; details: dosage 5 kg/ha; sprayed after emergence; judged 14 days after treatment
Procedure, shortened: as §2

[12] = system: forxtail grass (Alopecurus aequalis var. amurensis Ohwi), Am; test: as above; details: dosage 5 kg/ha; sprayed after emergence; judged 14 days after treatment
Procedure, shortened: as §2

[13] = system: barnyard grass (Echinochloa crus-galli Beauv.); test: Test Example 1: herbicidal effect on paddy field weeds before emergence; details: Dosage 5 kg/ha
Procedure, shortened: (§3)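 Grading reflects percent control relative to untreated plots, evaluated three weeks post-application. Treatment was a soil application of compound solution, predetermined dose, made to paddy-state pots before weed seeds germinated.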

[14] = system: bulrush (Scirpus juncoides Roxb.); test: as above; details: Dosage 5 kg/ha
Procedure, shortened: as §3

soybean plant = test: Test Example 4: phytotoxicity to upland crop plants, treatment after emergence; details: dosage 5 kg/ha, sprayed after emergence, judged 14 days after treatment
Procedure, shortened: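 Post-emergence foliar spray, compound at prescribed concentration, applied at defined leaf stages; weeds plus soybean/wheat grown in soil vats. Read-out: weed-killing rate and crop injury, 14 d post-treatment.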

wheat = test: as above; details: dosage 5 kg/ha, sprayed after emergence, judged 14 days after treatment
Procedure, shortened: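 Scores of weed-killing rate, with crop phytotoxicity, come from inspection 14 days after plants in soil vats, grown to specified leaf stages, are sprayed with a formulation holding the compound at a prescribed concentration.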

[15] = system: barnyard grass (Echinochloa crus-galli Beauv.); test: Test Example 2: herbicidal effect on paddy field weeds after emergence; details: Dosage 5 kg/ha; one-leaved stage; 21 days after treatment
Procedure, shortened: (§4)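 Weeds were sown in 1/10000 are pots of soil flooded to paddy conditions and grown to the one-leaf stage, then the soil was treated with a solution of compound at a predetermined dosage.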

[16] = system: monochoria (Monochoria vaginalis Presl); test: as above; details: Dosage 5 kg/ha; one-leaved stage; 21 days after treatment
Procedure, shortened: as §4

[17] = system: bulrush (Scirpus juncoides Roxb.); test: as above; details: Dosage 5 kg/ha; one-leaved stage; 21 days after treatment
Procedure, shortened: as §4

soybean plant (So) = test: Test Example 3: phytotoxicity to upland crop plants, treatment before emergence; details: dosage 5 kg/ha
Procedure, shortened: (§5)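 Crop injury to soybean and wheat was judged on a phytotoxicity scale 14 days after a pre-emergence spray of a liquid formulation at a prescribed concentration of compound.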

wheat (Wh) = test: as above; details: dosage 5 kg/ha
Procedure, shortened: as §5

| SMILES | Herbicidal effect Ga [1] | Herbicidal effect Vp [2] | Herbicidal effect At [3] | Herbicidal effect Xs [4] | Herbicidal effect Ec [5] | Herbicidal effect Am [6] | Herbicidal effect Ga [7] | Herbicidal effect Vp [8] | Herbicidal effect At [9] | Herbicidal effect Xs [10] | Herbicidal effect Ec [11] | Herbicidal effect Am [12] | Pre-emergence treatment Barnyard grass (herbicidal effect) [13] | Pre-emergence treatment Bulrush (herbicidal effect) [14] | Phytotoxicity So (soybean plant) | Phytotoxicity Wh (wheat) | Post-emergence treatment Barnyard grass (herbicidal effect) [15] | Post-emergence treatment Monochoria (herbicidal effect) [16] | Post-emergence treatment Bulrush (herbicidal effect) [17] | Phytotoxicity So (soybean plant (So)) | other results |
| --- | --- | --- | --- | --- | --- | --- | --- | --- | --- | --- | --- | --- | --- | --- | --- | --- | --- | --- | --- | --- | --- |
| CCc1ccc(Cl)c(CC)c1NC(=O)c1nc2ccccc2nc1C(=O)NC1CCCC1 [compound 1315] | 5 (Weed-killing rate is 100%.) | 5 (Weed-killing rate is 100%.) | 5 (Weed-killing rate is 100%.) | 5 (Weed-killing rate is 100%.) | 5 (Weed-killing rate is 100%.) | 5 (Weed-killing rate is 100%.) | 5 (Weed-killing rate is 100%.) | 5 (Weed-killing rate is 100%.) | 5 (Weed-killing rate is 100%.) | 5 (Weed-killing rate is 100%.) | 5 (Weed-killing rate is 100%.) | 5 (Weed-killing rate is 100%.) | 5 (Weed-killing rate is 100%.) | 5 (Weed-killing rate is 100%.) | 5 (Crop-killing rate is 100%.) | 5 (Crop-killing rate is 100%.) | 5 (Weed-killing rate is 100%.) | 5 (Weed-killing rate is 100%.) | 5 (Weed-killing rate is 100%.) | 5 (Crop-killing rate is 100%.) | Phytotoxicity Wh (wheat (Wh)): 5 (Crop-killing rate is 100%.) |
| CCCNC(=O)c1nc2ccccc2nc1C(=O)Nc1cccc(Cl)c1C [compound 1318] | 4 (Weed-killing rate is 90-99%.) | 5 (Weed-killing rate is 100%.) | 5 (Weed-killing rate is 100%.) | 4 (Weed-killing rate is 90-99%.) | 5 (Weed-killing rate is 100%.) | 5 (Weed-killing rate is 100%.) | 5 (Weed-killing rate is 100%.) | 5 (Weed-killing rate is 100%.) | 5 (Weed-killing rate is 100%.) | 4 (Weed-killing rate is 90-99%.) | 5 (Weed-killing rate is 100%.) | 5 (Weed-killing rate is 100%.) | 5 (Weed-killing rate is 100%.) | 4 (Weed-killing rate is 90-99%.) | 3 (Crop-killing rate is 70-89%.) | 4 (Crop-killing rate is 90-99%.) | 4 (Weed-killing rate is 90-99%.) | 5 (Weed-killing rate is 100%.) | 4 (Weed-killing rate is 90-99%.) | 3 (Crop-killing rate is 70-89%.) | Phytotoxicity Wh (wheat (Wh)): 5 (Crop-killing rate is 100%.) |
| Cc1c(Cl)cccc1NC(=O)c1nc2ccccc2nc1C(=O)NC1CCCC1 [compound 1327] | 4 (Weed-killing rate is 90-99%.) | 5 (Weed-killing rate is 100%.) | 5 (Weed-killing rate is 100%.) | 4 (Weed-killing rate is 90-99%.) | 5 (Weed-killing rate is 100%.) | 5 (Weed-killing rate is 100%.) | 5 (Weed-killing rate is 100%.) | 5 (Weed-killing rate is 100%.) | 5 (Weed-killing rate is 100%.) | 4 (Weed-killing rate is 90-99%.) | 5 (Weed-killing rate is 100%.) | 5 (Weed-killing rate is 100%.) | 5 (Weed-killing rate is 100%.) | 4 (Weed-killing rate is 90-99%.) | 3 (Crop-killing rate is 70-89%.) | 4 (Crop-killing rate is 90-99%.) | 4 (Weed-killing rate is 90-99%.) | 5 (Weed-killing rate is 100%.) | 4 (Weed-killing rate is 90-99%.) | 3 (Crop-killing rate is 70-89%.) | Phytotoxicity Wh (wheat (Wh)): 5 (Crop-killing rate is 100%.) |
